The values that follow come from US20120115955A1, “Methods for tumor treatment and adipogenesis differentiation” (Centro de Investigacion Principe Felipe, priority 2010, published 2012).

One test relates to MALME-3M cells. In words: Nile-Red neutral lipid / LD quantification by flow cytometry (FL2). Type of test: cell-based, human. Conditions: 12 hours, vs DMSO control; for LD accumulation (Nile-RED): 100 μg/ml each fatty acid, except 10 μg/ml docosahexaenoic and arachidonic acid; for fold induction at 100 µg/mL: Homo sapiens, 100 μg/ml, read-out: generation of LDs, fold induction (Nile-RED FL2). On the procedure: FIG. 6. […] MALME-3M cells were cultured in the presence of 10 μg/ml of docosahexaenoic acid, 100 μg/ml of nervonic acid, 100 μg/ml of erucic acid, 10 μg/ml of arachidonic acid, 100 μg/ml of linolenic acid, 100 μg/ml of linoleic acid, 100 μg/ml of oleic acid, 100 μg/ml of palmitoleic acid, 100 μg/ml of elaidic acid, or 100 μg/ml petroselinic acid for 12 hours. Fatty acids were dissolved in DMSO; therefore the cells cultured with RPMI+10% FBS and treated with DMSO only were considered negative controls. The Nile-Red analysis was performed as described in the Material and Methods section. Quantification in the FL2 parameter was assessed by the FlowJo software. Fold induction was estimated by calculating the ratio between treated conditions and the untreated condition (control). The results are representative of three independent experiments.
(§1) Cells (10^5) were washed twice in PBS and then incubated with 25 μg/ml of Nile-Red (Invitrogen) in PBS (15 min, 4° C.). After incubation, cells were filtered through a 30 μm sieve (CellTrics, Partec). Fluorescent emission (525 nm) was registered in the FL2 channel by a Beckman Coulter Flow Cytometer (Cytomics™ FC 500). Data files were analyzed using the FlowJo flow cytometer analysis software.
Background: In flow cytometry, cells or beads pass a laser one at a time.

The test system of another test is HUH-7 cells. Type of test: cell-based. How it is done: as §1
For test [1], the system named is HCCLs (MALME-3M, MCF-7, SK-OV-3, HUH-7). In words: Flow cytometry FSC and SSC parameters of HCCLs. Type of test: cell-based, human. As to conditions: mini-screen of unsaturated fatty acids associated with albumin; HUH-7, SK-OV-3, MCF-7, MALME-3M.

Entries after “also recorded” stand apart in the source; their conditions may differ.

Regarding `CCCCCCCC/C=C/CCCCCCCC(=O)O` [elaidic acid, reference compound], the “LD accumulation (Nile-RED)” value with MALME-3M cells is given as “LD accumulation was induced”.

Regarding `CCCCCCCC/C=C\CCCCCCCCCCCC(=O)O` [erucic acid, reference compound], the “LD accumulation (Nile-RED)” value in the test with MALME-3M cells is recorded as “LD accumulation was induced”.

As to `CCCCC/C=C\C/C=C\CCCCCCCC(=O)O` [linoleic acid, cis, cis-9,12-octadecadienoic acid], in the test on MALME-3M cells, the “LD accumulation (Nile-RED)” value is “triggers LD accumulation; also recorded: LD accumulation was induced” and the fold induction at 100 µg/mL was at least 6. In addition, the “LD accumulation by single fatty acid” value in the test on HUH-7 cells is listed as “triggers LD accumulation”. Besides, the “modifications in the forward and side scatter parameters” value (“modifications” below) in test [1] was “remarkable modifications in the forward and side scatter parameters”.

Regarding `CCCCCCCC/C=C\CCCCCCCC(=O)O` [oleic acid, (9Z)-Octadec-9-enoic acid], in the test with MALME-3M cells, the “LD accumulation (Nile-RED)” value is listed as “LD accumulation was induced” and the fold induction at 100 µg/mL was at least 6. In addition, the “modifications” value in test [1] was “remarkable modifications in the forward and side scatter parameters”.

For `CCCCCCC=CCCCCCCCC(=O)O` [palmitoleic acid, hexadec-9-enoic acid], in the test with MALME-3M cells, the “LD accumulation (Nile-RED)” value is reported as “LD accumulation was induced” and the fold induction at 100 µg/mL was at least 6. Further, the “modifications” value in test [1] is “remarkable modifications in the forward and side scatter parameters”.

Regarding `CCCCCCCCCCC/C=C\CCCCC(=O)O` [petroselinic acid, cis-6-octadecenoic], in the test on MALME-3M cells, the “LD accumulation (Nile-RED)” value is reported as “LD accumulation was induced” and the fold induction at 100 µg/mL was at least 6.
